Experimental findings from US6245816A, “Benzoylphenylurea insecticides and methods of using certain benzoylphenylureas to control ants” (priority 2000, dated 2001) are described below.

Holding throughout (format): in vivo
Data set [1] has as its system Pharaoh Ant (Monomorium pharionis). The experiment in a line: Laboratory ant bait study, Pharaoh Ant, brood reduction. To be noted: 0.1% in bait, 3-4 day exposure. As for the experimental part:
(§1) Laboratory ant bait studies were carried out with Red Imported Fire Ant (RIFA) (Solenopsis inivicta) and Pharaoh Ant (Monomorium pharionis). Chitin synthesis inhibitors, such as the compounds of the invention, control ants by killing the molting larvae and/or pupae and potentially preventing the hatching of eggs. Because adult workers are not affected, control is measured by effects on the brood. The studies involved 3-4 day exposure to bait. These limited exposure studies more accurately represent real world bait availability than continuous exposure.

The subject of data set [2] is German cockroach 2nd instars (Blattella germanica). The experiment in a line: German cockroach 2nd instars, continuous, low-dose ingestion exposure (treated cornmeal). Particulars: for activity relative to hexaflumuron: continuous exposure; for activity relative to hexaflumuron / activities in cockroaches (Compounds 1, 2, and 3 compared): in words; for LC50 (ppm) 21 days / LC50 (ppm) 42 days: continuous ingestion exposure, treated cornmeal; for activities in cockroaches (Compounds 1, 2, and 3 compared): test not specified further, all three compounds were tested only under continuous exposure. From the text: German cockroach 2nd instars (Blattella germanica)
Continuous, low-dose ingestion exposure (treated cornmeal)

Data set [3] deals with Subterranean Termite (Reticulitermes flavipes). In words: Subterranean termite, continuous exposure (56 days) to treated paper. To be noted: for LC50 (ppm) 56 days / LC50 (ppm) 35 days: continuous exposure to treated paper; for potency and speed of action relative to hexaflumuron: continuous exposure, in words. From the text: (§2) Subterranean Termite (Reticulitermes flavipes)
Continuous exposure (56 days) to treated paper

Data set [4] shares this test system. The experiment in a line: Subterranean termite, limited exposure (7 days), mortality at 14, 28, 42 and 56 days. To be noted: high rate, in words.
Source text: as §2
Limited exposure (7 days) with mortality determined at 14, 28, 42, and 56 days

Data set [5] relates to Cat Flea (Ctenocephalides felis). The experiment in a line: Cat flea, continuous exposure of larvae to treated media, impact on subsequent adult emergence. Particulars: for efficacy relative to hexaflumuron: cat fleas, in words. From the text: Cat Flea (Ctenocephalides felis)
Continuous exposure of larvae to treated media, impact on subsequent adult emergence

Data set [6] relates to Red Imported Fire Ant (RIFA) (Solenopsis inivicta). The experiment in a line: Laboratory ant bait study, Red Imported Fire Ant, brood reduction. To be noted: for Time to Achieve 50% Brood Reduction / Time to Achieve 90% Brood Reduction: RIFA, 3-4 day exposure. As for the experimental part: as §1
For data set [7], the system named is German cockroach 2nd instars (Blittella germanica). In words: German cockroach 2nd instars, limited ingestion exposure (48 hr) to treated cornmeal. To be noted: for potency relative to hexaflumuron: limited exposure, at both 21 and 42 days after exposure, in words. From the text:
German cockroach 2nd instars (Blittella germanica)
Limited ingestion exposure (48 hr) to treated cornmeal

For data set [8], the system named is Daphnia. The experiment in a line: Activity against Daphnia, 48 hr exposure to treated water.
Setting [9] is: continuous exposure of larvae to treated media, subsequent adult emergence.
Where [10] appears, read: 0.1% in bait, NA = not achieved.
The mark [11] stands for this setting: limited ingestion exposure (48 hr), treated cornmeal.

On to `O=C(NC(=O)c1c(F)cccc1F)Nc1cc(Cl)c(OC(F)(F)C(F)C(F)(F)F)c(Cl)c1F` (stereo not shown) [Compound 1, N-[3,5-Dichloro-2-fluoro-4-(1,1,2,3,3,3-hexafluoropropoxy)phenyl]-N'-(2,6-difluorobenzoyl)urea], for which the “Percent brood reduction achieved at end of study” value in data set [1] (@ 13 wks) is 70%. Moreover, the “Time to Achieve 50% Brood Reduction” value in data set [1] (NA = not achieved) is listed as 4 wks. Further, in data set [2], the “activity relative to hexaflumuron” value is given as “far more active than hexaflumuron”; the “LC50 (ppm) 21 days” value is listed as < 2.2 ppm; the “LC50 (ppm) 42 days” value is reported as < 0.78 ppm; the “activities in cockroaches (Compounds 1, 2, and 3 compared)” value is on record as “quite similar”. Also, in data set [3], the “LC50 (ppm) 56 days” value is given as < 0.78 ppm; the “potency and speed of action relative to hexaflumuron” value is “more potent and quicker acting than hexaflumuron”. The “mortality relative to hexaflumuron” value in data set [4] is “induced more mortality earlier than did hexaflumuron”. In data set [5], the “efficacy relative to hexaflumuron” value is “far more efficacious than hexaflumuron”. Besides, in data set [5] (setting [9]), the “LC50 (ppm)” value is recorded as 2.8 ppm and the “LC90 (ppm)” value is listed as 22 ppm. In data set [6] (setting [10]), the “Time to Achieve 50% Brood Reduction” value was determined as 2 wks and the “Time to Achieve 90% Brood Reduction” value stood at 3 wks. The “potency relative to hexaflumuron” value in data set [6] (short exposure study with RIFA, in words) is given as “significantly more potent than hexaflumuron”. Further, in data set [7], the “potency relative to hexaflumuron” value is “more potent than hexaflumuron”. The “LC50 (ppm) 42 days” value in data set [7] (setting [11]) is < 9.1 ppm.

`CCN(C(=O)NC(=O)c1c(F)cccc1F)c1cc(Cl)c(OC(F)(F)C(F)C(F)(F)F)c(Cl)c1F` (stereo not shown) [Compound 2, N-[3,5-Dichloro-2-fluoro-4-(1,1,2,3,3,3-hexafluoropropoxy)phenyl]-N'-(2,6-difluorobenzoyl)-N-ethylurea]: the “activity against Daphnia relative to Compound 1 and hexaflumuron” value in data set [8] (in vivo) was “much less active against Daphnia than were Compound 1 and hexaflumuron”. In addition, in data set [2], the “activity relative to hexaflumuron” value is on record as “far more active than hexaflumuron”; the “LC50 (ppm) 21 days” value was found to be 0.35 ppm; the “LC50 (ppm) 42 days” value stood at 0.26 ppm; the “activities in cockroaches (Compounds 1, 2, and 3 compared)” value is “quite similar”. In addition, in data set [3], the “LC50 (ppm) 35 days” value is < 0.78 ppm; the “LC50 (ppm) 56 days” value is < 0.78 ppm; the “potency and speed of action relative to hexaflumuron” value is “more potent and quicker acting than hexaflumuron”. Moreover, the “efficacy relative to hexaflumuron” value in data set [5] is recorded as “far more efficacious than hexaflumuron”. Besides, the “potency relative to hexaflumuron” value in data set [7] was “more potent than hexaflumuron”.

As to `CCN(C(=O)Nc1cc(Cl)c(OC(F)(F)C(F)C(F)(F)F)c(Cl)c1F)C(=O)c1c(F)cccc1F` (stereo not shown) [Compound 3, N-[3,5-Dichloro-2-fluoro-4-(1,1,2,3,3,3-hexafluoropropoxy)phenyl]-N'-(2,6-difluorobenzoyl)-N'-ethyl urea], in data set [8] (in words), the “activity against Daphnia relative to Compound 1 and hexaflumuron” value was “much less active against Daphnia than were Compound 1 and hexaflumuron”. In addition, in data set [2], the “activity relative to hexaflumuron” value is listed as “far more active than hexaflumuron”; the “LC50 (ppm) 21 days” value is recorded as 8.0 ppm; the “LC50 (ppm) 42 days” value worked out at 1.5 ppm; the “activities in cockroaches (Compounds 1, 2, and 3 compared)” value was “quite similar”.

As to `O=C(NC(=O)c1c(F)cccc1F)Nc1cc(Cl)c(OC(F)(F)C(F)F)c(Cl)c1` [hexaflumuron, reference compound], in data set [2], the “LC50 (ppm) 21 days” value is > 200 ppm and the “LC50 (ppm) 42 days” value was > 200 ppm. In addition, in data set [3], the “LC50 (ppm) 35 days” value is reported as > 200 ppm and the “LC50 (ppm) 56 days” value is given as 1.3 ppm. For the same molecule, in data set [6] (0.25% in bait), the “Time to Achieve 50% Brood Reduction” value was found to be 4 wks and the “Time to Achieve 90% Brood Reduction” value is 10 wks. Besides, in data set [7] (limited ingestion exposure (48 hr), treated cornmeal, 21 days), the “LC50 (ppm) 21 days” value was > 10,000 ppm. In addition, in data set [7] (setting [11]), the “LC50 (ppm) 42 days” value was > 10,000 ppm.
